In assay [1] the test system is Rap1. In words: GTP-RAP1 pull-down assay in MIN6 cells. In kind it is cell-based. On the procedure:
(§1) GTP-RAP1 pull-down assay was performed according to the method described in Shibasaki T. et al. Proc. Natl. Acad. Sci. USA 104, 19333-9 (2007). Namely, MIN6 cells which had been let stand for 30 minutes in HEPES-KRB buffer in advance were cultured for further 15 minutes in HEPES-KRB buffer containing an agent of interest and 2.8 mM glucose. Then, the cells were fractured, and to the cell lysate thus obtained was added glutathione resin which carried GST-Ra1GDS-RID bound to it (SIGMA). After 90 minutes of incubation at 4 deg C., the resin was separated by centrifugation, washed several times with HEPES-KRB buffer, and subjected to SDS-PAGE gel electrophoresis. After the SDS-PAGE gel electrophoresis, Western blotting was carried to transfer the protein onto PVDF membrane, and Rap1 transferred on the membrane was detected with anti-Rap1 antibody (Santa Cruz Biotechnology, Inc., USA).
Epac2 has the GEF activity and activates Rap1 by converting it to GTP-bound Rap1 through its binding to […]. This reaction constitute part of signal transmission for insulin secretion in beta-cells. Thus, it was examined whether or not Rap1 is activated with SU agents, using MIN6 cells, which originate from beta-cells. Activation of Rap1 was measured by determining GTP-bound Rap1, using GTP-RAP1 pull-down assay.

Assay [2] has as its system Rap1. In words: GTP-RAP1 pull-down assay in Epac2-lacking pancreatic beta-cells transformed with mouse Epac2 expression vector. In kind it is cell-based. The procedure: (§2) Pancreatic beta-cells lacking Epac2 were obtained according to the technique disclosed in Shibasaki T. et al. Proc. Natl. Acad. Sci. USA 104, 19333-9 (2007), by isolating from the mice which were bred after crossing Epac2-lacking mice with IT6 mice, in which SV40 large T […] is expressed under the control of human insulin gene promoter. The method for preparing IT6 mice is described in Miyazaki J, et al., Endocrinology, 127, 126-132 (1990). Further, MIN6 cells were prepared by the technique disclosed in Japanese patent application publication No. 2002-125661.
as §1

Assay [3] relates to Rap1. The assay can be described thus: GTP-RAP1 pull-down assay in Epac2-lacking pancreatic beta-cells. In kind it is cell-based, mouse. The procedure:
as §2, §1
Then, using Epac2-lacking pancreatic beta-cells, examination was performed as to whether Rap1 was activated by SU agents. Activation of Rap1 was measured by determining the amount of GTP-bound Rap1 using GTP-RAP1 pull-down assay.

Assay [4] has as its target T1, fluorescent-labeled mouse Epac2 (Mus musculus, UniProt Q9EQZ6).
T1 sequence (Q9EQZ6 1-1011): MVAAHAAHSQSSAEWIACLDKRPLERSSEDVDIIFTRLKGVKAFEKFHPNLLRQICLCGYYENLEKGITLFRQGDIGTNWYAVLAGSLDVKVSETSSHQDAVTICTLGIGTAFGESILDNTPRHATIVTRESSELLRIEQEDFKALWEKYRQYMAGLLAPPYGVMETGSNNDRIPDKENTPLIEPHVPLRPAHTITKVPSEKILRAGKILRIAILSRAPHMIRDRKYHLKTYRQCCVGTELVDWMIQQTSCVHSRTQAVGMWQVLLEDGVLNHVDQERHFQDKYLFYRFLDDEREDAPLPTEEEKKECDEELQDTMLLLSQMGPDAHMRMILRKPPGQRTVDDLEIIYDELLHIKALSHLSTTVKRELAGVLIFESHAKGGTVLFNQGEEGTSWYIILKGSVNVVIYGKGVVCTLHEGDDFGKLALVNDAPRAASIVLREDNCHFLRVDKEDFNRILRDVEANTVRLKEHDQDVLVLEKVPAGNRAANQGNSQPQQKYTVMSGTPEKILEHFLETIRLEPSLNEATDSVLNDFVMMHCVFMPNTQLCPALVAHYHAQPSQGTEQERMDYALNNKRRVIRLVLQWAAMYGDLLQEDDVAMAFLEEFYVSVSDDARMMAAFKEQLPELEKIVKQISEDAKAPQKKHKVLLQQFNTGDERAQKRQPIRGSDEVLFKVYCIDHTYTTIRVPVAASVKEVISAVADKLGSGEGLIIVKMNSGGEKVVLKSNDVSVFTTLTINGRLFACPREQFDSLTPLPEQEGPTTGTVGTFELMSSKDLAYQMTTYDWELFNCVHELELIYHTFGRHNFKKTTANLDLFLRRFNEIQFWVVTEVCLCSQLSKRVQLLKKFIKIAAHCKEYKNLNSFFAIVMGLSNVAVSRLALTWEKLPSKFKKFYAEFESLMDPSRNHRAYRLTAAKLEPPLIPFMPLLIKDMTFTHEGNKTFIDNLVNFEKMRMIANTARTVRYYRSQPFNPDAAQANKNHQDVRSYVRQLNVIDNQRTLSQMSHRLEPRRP
The assay can be described thus: FRET dynamic analysis of fluorescent-labeled mouse Epac2 in COS-1 cells. The assay is classed as cell-based. The arrangement: expressed in transfected cells; host or cells: COS-1 cells (A1). Conditions: COS-1 cells that did not express SUR1, in the presence of SU agent. The procedure: Two days before the day for measurement, the cells were transformed with fluorescent-labeled mouse Epac2 expression vector and then cultured. On the day before the day for measurement, the cells were transferred onto the glass culture dishes of 25 mm in diameter, and culture was continued. About 48 hours after the transformation, the culture medium was replaced with HEPES-KRB buffer (HEPES buffer containing 133.4 mM NaCl, 4.7 mM KCl, 1.2 mM KH2PO4, 1.2 mM MgSO4, 2.5 mM CaCl2, 5.0 mM NaHCO3, 2.8 mM glucose, and 0.2% BSA (pH 7.4)). The cells were observed through a confocal microscope (FV1000, Olympus Corporation) equipped with the UPlanSApo objective lens (100*oil/1.40 NA) to set the focus of the lens on the cells, and excitation light with the wavelength of 440 nm was irradiated using 440 nm LD laser (FV5-LDPSU, Olympus Corporation) at the power of 0.5%. Fluorescent light emitted from thus excited fluorescent-labeled mouse Epac2 was observed through two fluorescence filters, 480DF30 (for 480 nm light) and 535DF25 (for 535 nm light) as dual images of the fluorescent light every 5 seconds for dynamic analysis of the emitted fluorescent light. The results of the dynamic analysis, after first calculating the ratio R in intensity of fluorescence at 535 nm to 480 nm at each measurement (ratio of intensity at 535 nm/intensity at 480 nm), were expressed in the value which was derived by dividing the ratio by the initial value R0 (ratio of intensity at 535 nm/intensity at 480 nm before addition of an agent), i.e., R/R0. All the observation was carried out at room temperature.

The target in assay [5] is T2, mouse Epac2 (Mus musculus, UniProt Q9EQZ6).
T2 construct: expressed in transfected cells; host or cells: COS-1 cells
T2 sequence (Q9EQZ6 1-1011): T1 sequence (Q9EQZ6 1-1011)
In words: Sulfonylurea binding experiment with tritium-labeled glibenclamide in COS-1 cells transformed with mouse Epac2 expression vector. The source says: COS1 cells were transformed with mouse Epac2 expression vector. […] The membrane was washed four times with the same buffer which had been ice cooled, and then measured for radioactivity on a liquid scintillation counter.

For assay [6], the system named is pancreatic islets. In words: Insulin secretion experiment, pancreatic islets of wild-type and Epac2-lacking mice. In kind it is cell-based, mouse. The procedure: Mouse pancreatic beta-cells were isolated from wild-type mice (C57BL/6) or Epac2-lacking mice, and cultured for two days. The mouse pancreatic beta-cells were let stand in HEPES-KRB buffer containing 2.8 mM glucose for 30 minutes. The cells then were dispensed to […] in such a manner that five pancreatic islets of a like size were contained in each well, and cultured for 15 minutes in 100 micro L HEPES-KRB buffer containing an agent of interest and 2.8 mM glucose. The amount of insulin released in the medium and that in the cells were measured using an insulin assay kit (Medical Biological Laboratories Co. Ltd.). The amount of secreted insulin was normalized by the amount of insulin in the cells.
The effect of SU agents on insulin secretion via Epac2 was examined in an insulin secretion experiment using pancreatic islets. First, pancreatic islets obtained from wild-type mice and Epac2-lacking mice were stimulated with glucose, and the amount of secreted insulin was determined.

Assay [7] has as its target T1, fluorescent-labeled mouse Epac2. In words: FRET dynamic analysis of fluorescent-labeled mouse Epac2 in MIN6 cells. In kind it is cell-based. Particulars: in the presence of SU agent. Also on record: expressed in transfected cells; host or cells: MIN6 cells (A3). On the procedure: All the observation was carried out at room temperature.
The conditions of assay [8]: clinical report (Non-patent document 19); cited from earlier work.
Assay [9] can be described thus: Oral glucose tolerance test in wild-type and Epac2-lacking mice. The assay is classed as in vivo, mouse. Conditions: oral 1.5 g/kg glucose plus 100 mg/kg tolbutamide. The procedure: Peripheral blood was sampled at a predetermined point of time, and serum insulin concentration and blood glucose concentration were measured with an ELISA kit (mftd. by Morinaga) and Antisense III glucose analysis device (Bayer Yakuhin, Ltd.), respectively.
Next, glucose was administered together with tolbutamide, and measurement was conducted in the same manner.

Where [10] appears, read: concentration-dependent, 15 minutes, 2.8 mM glucose.

As to `CC(=O)c1ccc(S(=O)(=O)NC(=O)NC2CCCCC2)cc1` [acetohexamide], the “amount of GTP-bound Rap1 (activation of Rap1)” value (from here on “amount of GTP-bound Rap1”) in [1] (setting [10]) was “increase the amount of GTP-bound Rap1”. Further, the “activation of Rap1” value in assay [2] is reported as “found to activate Rap1”; in assay [3], “activated no Rapt”. Moreover, the “change in R/R0 value (FRET)” value in [4] is “decrease in R/R0”.
Turning to `CCCNC(=O)NS(=O)(=O)c1ccc(Cl)cc1` [chlorpropamide], the “amount of GTP-bound Rap1” value in assay [1] (setting [10]) was “increase the amount of GTP-bound Rap1”. For the same compound, the “activation of Rap1” value in assay [2] was “found to activate Rap1”; in [3], “activated no Rapt”. Further, the “change in R/R0 value (FRET)” value in assay [4] is “decrease in R/R0”.
Usually IC50 stands for the concentration at which inhibition is half-maximal. Take `COc1ccc(Cl)cc1C(=O)NCCc1ccc(S(=O)(=O)NC(=O)NC2CCCCC2)cc1` [glibenclamide]: the “amount of GTP-bound Rap1” value is reported as “increase the amount of GTP-bound Rap1” in assay [1] (setting [10]) and “failed to increase it” in assay [1] (concentrations higher than 100 nM). The figures for the “activation of Rap1” value in assay [2] and in assay [3] were “found to activate Rap1” and “activated no Rapt”, respectively. The “change in R/R0 value (FRET)” value is reported as “decrease in R/R0” in [4] and “concentration-dependent decrease in R/R0 value” in assay [7]. This compound gave an IC50 in assay [5] of 0.025 µM. In addition, the “insulin secretion, islets from Epac2-lacking mice compared with wild-type mice” value (shortened to “insulin secretion … compared with wild-type mice”) in assay [6] (10 nM) is listed as “markedly low insulin secretion”.
On to `Cc1ccc(S(=O)(=O)NC(=O)NN2CC3CCCC3C2)cc1` (stereo not shown) [gliclazide], for which the “glycemic control in a patient with neonatal diabetes” value in assay [8] is reported as “not effective”. For the same compound, the “amount of GTP-bound Rap1” value in [1] (setting [10]) is on record as “no effect on the amount of GTP-bound Rap1”. Moreover, the “change in R/R0 value (FRET)” value in assay [4] is “no change in R/R0 value”. Also, the “insulin secretion … compared with wild-type mice” value in assay [6] (10 nM) is “no significant difference”.
For the compound `Cc1cnc(C(=O)NCCc2ccc(S(=O)(=O)NC(=O)NC3CCCCC3)cc2)cn1` [glipizide], in [1] (setting [10]), the “amount of GTP-bound Rap1” value is listed as “increase the amount of GTP-bound Rap1”. Moreover, the “activation of Rap1” value is recorded as “found to activate Rap1” in [2] and “activated no Rapt” in assay [3]. Further, the “change in R/R0 value (FRET)” value in assay [4] is on record as “decrease in R/R0”.
For the compound `CC(C)[C@H]1CC[C@H](C(=O)N[C@H](Cc2ccccc2)C(=O)O)CC1` [nateglinide], in [2], the “activation of Rap1” value was “did not activate Rap1”. For the same compound, in [4], the “change in R/R0 value (FRET)” value is “no change in R/R0 value”.
On to `CCCCNC(=O)NS(=O)(=O)c1ccc(C)cc1` [tolbutamide], for which the “activation of Rap1” value is “found to activate Rap1” in [2] and “activated no Rapt” in [3]. In addition, the figures for the “change in R/R0 value (FRET)” value in assay [4] and in assay [7] were “decrease in R/R0” and “concentration-dependent decrease in R/R0 value”, respectively. The same compound had an IC50 in [5] of 240 µM. The “insulin secretion … compared with wild-type mice” value in [6] (100 nM) is given as “markedly low insulin secretion”. Further, the “blood glucose concentration, Epac2-lacking mice compared with wild-type mice” value in assay [9] is on record as “high in the Epac2-lacking mice compared with the wild-type mice”. Moreover, the “serum insulin concentration, Epac2-lacking mice compared with wild-type mice” value in [9] is listed as “low in the Epac2-lacking mice compared with the wild-type mice”.
